Results from patent US20140106387A1, “METHOD FOR CONTROLLING NAD(P)/NAD(P)H RATIO BY OXIDOREDUCTASE” (MD BIOALPHA CO., LTD., priority 2006, published 2014).

Columns and labels:
[1] = system: AMPK, ACC; test: AMPK and ACC phosphorylation in HepG2 cells (Western blot); assay type: cell-based, human
Method: Cells were lysed in SDS sample buffer (62.5 mM Tris HCl (pH 6.8), 6% (w/v) SDS, 30% glycerol, 125 mM DTT, and 0.03% (w/v) bromophenol blue). The total cell lysates were boiled at a temperature of 100° C. for 5 min and electrophoresed on a sodium dodecyl sulfate-polyacrylamide gel, and proteins were transferred on a nitrocellulose membrane. The membrane was reacted in TBS (5% (w/v) milk and 0.1% Tween 20) for 1 hour, and then reacted with primary antibodies for 2 hours. Next, the membrane was developed using HRP-conjugated secondary antibodies (Phototope-HRP Western Blot Detection Kit, New England Biolabs, Beverly, Mass.).
HepG2 (human hepatoma cell line), HEK293 (Human embryonic kidney cell line), and C2C12/L6 myoblasts were purchased from American Type Culture Collection (ATCC, Manassas, Va., USA). LKB−/− MEFs were purchased from R.A. DePinho. Rat ventricular myocytes were enzymatically isolated from the heart of adult […] by a known method. Phosphorylation of AMPK (Thr172) and ACC (Ser79) was measured by Western blot analysis using Cell Signaling Technologies and pan- and phospho-specific antibodies (Upstate Biotechnology, Inc., Lake Placid, N.Y.).
This Example was carried out to confirm whether an NQO1 activator has effects through NQO1 on phosphorylation of AMPK and ACC that are intracellular energy-regulating proteins. In order to examine phosphorylation of AMP kinase and ACC (acetyl-CoA carboxylase) by the NQO1 activator pyrano-1,2-naphthoquinone, HepG2 cells (Human hepatoma cell line) were seeded onto a 6-well plate at a density of 1×10^5 cells per well, and cultured in a RPMI+10% FBS medium. After growing the cells for 24 hours, the culture medium was replaced with a serum-free RPMI medium and cells were treated with pyrano-1,2-naphthoquinone (10 μM) for 30 min, 1 hr, 2 hrs, 4 hrs and 6 hrs, in combination with a control (DMSO). Anti-ACC and Anti-pS79-ACC were used to observe phosphorylated ACC, whereas Anti-AMPK and Anti-pT172-AMPK were used to observe phosphorylated AMP kinase.
In order to investigate the importance of an NQO1 protein in phosphorylation of AMP kinase, HepG2, MCF-7 and HEK293 cells were seeded onto 60 mm plates at a density of 1×10^6 cells/plate. After growing the cells for 24 hours, the culture medium was replaced with a serum-free medium, and cells were treated with pyrano-1,2-naphthoquinone (10 μM) for 30 min, respectively, in combination with a control group (DMSO). Cells were lysed in RIPA buffer and amounts of all proteins were quantified using a spectrophotometer, and 50 μg of the protein was subjected to electrophoresis. AMP kinase phosphorylation was examined using Anti-AMPK and Anti-pT172-AMPK, whereas the NQO1 protein was assayed using Anti-NQO1. […]

[2] = system: NQO1; test: NAD(P)H recycling assay (decrease of NAD(P)H by NQO1-activating candidate compounds); assay type: biochemical
Method: (10) NAD(P)H Recycling Assay
An NADH recycling assay was carried out using the above-extracted S9 supernatant or human recombinant NQO1 (hrNQO1). 20 μg of the S9 supernatant or 0.5 unit of hrNQO1 in conjunction with 200 μM NAD(P)H were added to a 25 mM Tris/HCl (pH 7.4) solution containing 0.2 mg/mL bovine serum albumin. The enzymatic reaction was initiated with addition of a […] compound and absorbance changes were monitored and recorded at 340 nm for 10 min.
For a variety of NQO1-activating candidate compounds as listed in Table 1 below, a decrease of NAD(P)H was measured based on the aforesaid experimental method (disclosed in Section 10 hereinbefore: NADH recycling assay). In addition, according to the experimental method given in Example 23, the body weight of ob/ob mice after four weeks was measured.
In this connection, the decreasing degree of NAD(P)H was expressed as a relative amount of NAD(P)H measured upon administration of the NQO1-activating candidate compound, by taking the amount of NAD(P)H in the absence of the NQO1 activator NAD(P)H to be 100. In addition, the degree of the body weight loss was expressed as a percentage of the body weight of ob/ob mice with administration of the NQO1-activating candidate compound, relative to the body weight of ob/ob mice without administration of the NQO1-activating candidate compound (control) after four weeks.

[3] = liver and muscle histology (H&E, EM) in ob/ob mice; assay type: in vivo, mouse; conditions: 56 days
Method: The removed tissues were cut into a proper size, fixed in 10% formalin, washed with water, and embedded in paraffin to prepare blocks, according to a conventional method. The thus-prepared blocks were sectioned into a 4 μm thickness and subjected to hematoxylin and eosin (H&E) staining for observation of general changes.
For observation of cellular microstructures, the removed tissues were sliced into a size of 1 mm^3, pre-fixed in 2.5% glutaraldehyde (0.1M PBS, pH 7.4, 4° C.) for 2 to 4 hours, washed, and post-fixed in a 1% osmium tetroxide solution for 2 hours. Then, according to a conventional method, the tissues were dehydrated with serial concentrations of ethanol and the solvent was replaced with propylene oxide. The tissues were embedded in an epoxy resin mixture, and the embedded tissues were subjected to thermal polymerization to prepare blocks. The thus-prepared blocks were sectioned into a thickness of 0.5 to 1 μm using a ultramicrotome and stained with toludine blue. Observation sites were selected under a light microscope and the tissues were ultrasectioned to a thickness of 60 to 70 nm. The ultrasectioned specimens were subjected to dual staining of uranyl acetate and lead citrate and were observed under a transmission electron microscope (H-600, Hitachi, Japan) at an accelerating voltage of 75 kV.
In order to examine fat accumulation in the liver tissue, animals were laparotomized 56 days after administration of pyran-1,2-naphthoquinone, and H&E staining and EM examination were performed on the liver tissue.

CC1(C)CCC2=C(O1)c1ccccc1C(=O)C2=O [βL, 2,2-Dimethyl-3,4-dihydro-2H-benzo[h]chromene-5,6-dione]
duration of AMP kinase phosphorylation effects ([1]; HepG2, 10 μM): up to 6 hours
initial time point at which phosphorylation of AMP kinase was observed ([1]; HepG2, 10 μM): 30 min
phosphorylation of ACC ([1]; HepG2, 10 μM): also phosphorylated
ACC phosphorylation and AMPK phosphorylation/activation ([1]; HepG2 cells): accelerates
Residual amount of NAD(P)H(%) ([2]; relative amount of NAD(P)H, amount in the absence of the NQO1 activator taken to be 100): 61.27 ± 1.09%
decrease of NAD(P)H and consequent body weight reduction ([2]; summary of Table 1 in words): significant decrease of NAD(P)H
EM examination on liver tissues [3]: remarkably decreased fat vacuoles and glycogen stores
EM examination on muscle tissue of animal limbs [3]: recovery of normal mitochondrial morphology
H&E staining on liver tissue [3]: almost all fat vacuoles have disappeared
